# Results as given in patent publication US20180280450A1, “METHOD OF PROMOTING IMMUNE HEALTH USING THE WATER-SOLUBLE COMPONENT FROM GENUS EUGLENA ORGANISM” (KEMIN INDUSTRIES, INC., priority 2017, published 2018).
# What was measured:
# T-cells = test: Immune cell activation by flow cytometry (CD69/CD25) on T-cells in PBMC cultures; type: cell-based, human; settings: 24-hour PBMC cultures
# Procedure: (§1) Human peripheral blood mononuclear cell (PBMC) cultures were used for this testing. A set of cultures was left untreated as negative control cultures for immune activation. Triplicate sets of cultures were treated with serial dilutions of the test product. The inflammatory bacterial lipopolysaccharide LPS from E. coli was used as a positive control for activation. The cultures were incubated for 24 hours, after which the cells and the culture supernatants were harvested and used to monitor the reactions in each culture. […]
# (§2) The cells were stained with a combination of monoclonal antibodies to monitor activation status, and analyzed by multi-parameter flow cytometry, using an acoustic dual-laser Attune® flow cytometer. […]
# (§3) Immune cell activation was analyzed after the cell viability testing. […] The cells were stained with a combination of monoclonal antibodies to monitor activation, and analyzed by multi-parameter flow cytometry, using an acoustic dual laser Attune® flow cytometer. […]
# (§4) The cellular staining for activation, performed using a fluorescently labelled monoclonal antibody to the CD69 and CD25 activation markers, allowed researchers to measure cellular activation by fluorescence intensity. […]
# [1] = system: CD69/CD25 double positive lymphocytes; test: CD69/CD25 double positive lymphocytes by flow cytometry in PBMC cultures; type: cell-based, human; settings: 24-hour PBMC cultures, dose not specified
# Procedure: as §1, §2, §3, §4
# non-T non-NK lymphocytes = test: Immune cell activation by flow cytometry (CD69/CD25) on non-T non-NK lymphocytes in PBMC cultures; type: cell-based, human; settings: 24-hour PBMC cultures
# Procedure: as §1, §2, §3, §4
# monocytes = test: Immune cell activation by flow cytometry (CD69) on monocytes in PBMC cultures; type: cell-based, human; settings: dose not specified
# Procedure: as §1, §2, §3, §4
# human immune cells = test: In vitro bioassay screening of Test Products in cell cultures of human immune cells (overall summary); type: cell-based; settings: sample preparation after 0.2 micron filtration
# Procedure: Bioassay screening of nutraceutical ingredients and one blend were performed to evaluate their potency and mechanisms of action. The screening involved testing in cell cultures involving human immune cells. As part of this process, selected immune ingredients currently on the market were compared for similarities and differences of mechanisms of action, as well as efficacy (active dose comparison). Eight Test Products labeled Test Products A-H, as noted in the various tables and explained below were employed in this study.
# The water-soluble Test Products were prepared by taking 0.25 grams of powder into 5 mL of physiological saline. The suspension was incubated under gentle agitation for one hour, after which any remaining solids were removed by centrifugation. Insoluble, particulate Test Products were prepared by taking 0.5 grams of powder into 3 mL of physiological saline. One (1) mL ceramic beads (200 uM zirconium) were added, and bead milling performed by 10 cycles of repeated 60-second pulsing (vortex high speed, 60 one (1) second pulses) with placement of samples in an ice-bath between cycles. Subsequently, seven (7) mL of physiological saline was then added to bring the samples to a 50 mg/mL final concentration. […]
# Solubility in water = type: physicochemical
substance,measurement,setting,value
paramylon [Test Product D],CD25 expression on T-cells,T-cells; at lower doses,varying degrees of suppressing CD25 expression
same,CD69 expression on T-cells,T-cells; figures show T-cells,only exerted minor effects
same,number of CD69/CD25 double-positive lymphocytes,[1],"only exerted minor, if any, effects"
same,CD69 expression on non-T non-NK cells,non-T non-NK lymphocytes; dose not specified (FIG. 19),"only exerted minor, if any, effects"
same,CD25 expression on non-T non-NK cells,non-T non-NK lymphocytes; FIG. 21 shows CD25,"only exerted minor, if any, effects"
same,CD69 expression on monocytes,monocytes,"only exerted minor, if any, effects"
same,activity in the in vitro screen (overall),human immune cells,essentially no activity
same,activity in the in vitro screen (overall),human immune cells; listed as Sample D,essentially inactive
same,solubility in water,Solubility in water,completely insoluble
